Measurements published in PubChem BioAssay (NCI).
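96-well plates; 48 h exposure; 5 concentrations. Endpoints by linear interpolation between flanking doses. Not reached: highest tested concentration assigned. TGI marks complete inhibition of growth.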

Legend:
Assay in all cases: NCI anticancer screen, dose series, 48 h
HCT-15 colon = system: HCT-15 colon
SNB-19 CNS = system: SNB-19 CNS
RXF 393 renal = system: RXF 393 renal
CCRF-CEM leukemia = system: CCRF-CEM leukemia
NCI-H460 lung = system: NCI-H460 lung
KM12 colon = system: KM12 colon
UACC-62 melanoma = system: UACC-62 melanoma
SK-MEL-28 melanoma = system: SK-MEL-28 melanoma
MALME-3M melanoma = system: MALME-3M melanoma
DLD-1 colon = system: DLD-1 colon
SF-295 CNS = system: SF-295 CNS
OVCAR-5 ovarian = system: OVCAR-5 ovarian
SN12C renal = system: SN12C renal
EKVX NSCLC = system: EKVX NSCLC
RXF-631 renal = system: RXF-631 renal
LXFL 529 NSCLC = system: LXFL 529 NSCLC
NCI-H226 lung = system: NCI-H226 lung
SR leukemia = system: SR leukemia
MOLT-4 leukemia = system: MOLT-4 leukemia
SK-MEL-2 melanoma = system: SK-MEL-2 melanoma
M19-MEL melanoma = system: M19-MEL melanoma
TK-10 renal = system: TK-10 renal
XF 498 CNS = system: XF 498 CNS
LOX IMVI melanoma = system: LOX IMVI melanoma
DMS 273 small cell lung = system: DMS 273 small cell lung
HCT-116 colon = system: HCT-116 colon
U251 CNS = system: U251 CNS
SF-268 CNS = system: SF-268 CNS
SW-620 colon = system: SW-620 colon
ACHN renal = system: ACHN renal
SK-OV-3 ovarian = system: SK-OV-3 ovarian
HCC-2998 colon = system: HCC-2998 colon
HT29 colon = system: HT29 colon
IGROV1 ovarian = system: IGROV1 ovarian
A549 NSCLC = system: A549 NSCLC
786-0 renal = system: 786-0 renal
CAKI-1 renal = system: CAKI-1 renal
SF-539 CNS = system: SF-539 CNS
KM20L2 colon = system: KM20L2 colon
NCI-H522 lung = system: NCI-H522 lung
HOP-62 NSCLC = system: HOP-62 NSCLC
HOP-92 NSCLC = system: HOP-92 NSCLC
K-562 leukemia = system: K-562 leukemia
OVCAR-8 ovarian = system: OVCAR-8 ovarian
UACC-257 melanoma = system: UACC-257 melanoma
SK-MEL-5 melanoma = system: SK-MEL-5 melanoma
HL-60(TB) leukemia = system: HL-60(TB) leukemia
HOP-18 NSCLC = system: HOP-18 NSCLC
NCI-H23 lung = system: NCI-H23 lung
COLO 205 colon = system: COLO 205 colon
OVCAR-3 ovarian = system: OVCAR-3 ovarian
SNB-75 CNS = system: SNB-75 CNS
DMS 114 small cell lung = system: DMS 114 small cell lung
M14 melanoma = system: M14 melanoma
OVCAR-4 ovarian = system: OVCAR-4 ovarian
UO-31 renal = system: UO-31 renal
SNB-78 CNS = system: SNB-78 CNS
RPMI-8226 leukemia = system: RPMI-8226 leukemia
A498 renal = system: A498 renal

Measured: TGI

CNC(=S)NNC(=O)c1c(C)nc2sccn12
not listed: SNB-75 CNS | DMS 114 small cell lung | M14 melanoma | OVCAR-4 ovarian | UO-31 renal | SNB-78 CNS | RPMI-8226 leukemia | A498 renal
> 100 µM: all other assays above

COC(=O)C(C(=O)C(=O)Nc1c(Cl)cc([N+](=O)[O-])cc1Cl)c1nc2cc(C)c(C)cc2[nH]c1=O (stereo unspecified)
not listed: SK-MEL-28 melanoma | SR leukemia | XF 498 CNS | SK-MEL-5 melanoma
> 100 µM: all other assays above
